Earlier results on one substance are cited in US9611229B2, “1,2,3-triazole-4-amine derivatives for the treatment of sigma receptor related diseases and disorders” (LABORATORIOS DEL DR. ESTEVE S.A., priority 2013, dated 2017).

One series deals with sigma 1 (σ-1) site (Homo sapiens (Human), UniProt Q99720).
Another series has as its target sigma 2 (σ-2) site (Homo sapiens (Human), UniProt Q5BJF2).

On to SKF 10047, for which the “affinity for the sigma 1 (σ-1) site” value at sigma 1 (σ-1) site is “nanomolar affinity”. Moreover, on sigma 2 (σ-2) site, the “affinity for the sigma 2 (σ-2) site” value is given as “micromolar affinity”.
